Test results from PMC3006138, “Fexinidazole – A New Oral Nitroimidazole Drug Candidate Entering Clinical Development for the Treatment of Sleeping Sickness” (PLoS Neglected Tropical Diseases, 2010).
“And” between values parts separate entries of the source, which are not always exact repeats. Equal entries are not always repeated.

Experiments:
[1] = test system: T. b. rhodesiense (STIB 900); experiment: In vitro trypanocidal assay (Alamar Blue); type: cell-based, Trypanosoma brucei rhodesiense; details: Trypanosoma brucei, 72 h; read-out: IC50
Method: 10 µL of Alamar Blue was added for the final 3 h to determine viability. […] The IC50 values were calculated from the sigmoidal inhibition curves. For cytotoxicity, 4×10^4/mL L-6 rat skeletal myoblast cells were used, and incubations and assessments carried out as above.

[2] = test system: hepatocytes from African American donors; experiment: Hepatocyte intrinsic clearance and metabolite profile; type: in vitro ADME, human; details: fexinidazole 10 µM
Method: Fexinidazole was incubated with cryopreserved hepatocytes from male CD-1 mice, male Sprague Dawley rats, male beagle dogs, male cynomolgus monkeys, and from pooled white or African-American human donor samples (purchased commercially), at concentrations of 1 µM and 10 µM. […] The incubated samples were analyzed by LC-MS after extraction into acetonitrile.
Fexinidazole sulfoxide, lot 1106-I-0170, 99.3% purity, and fexinidazole sulfone, lot 1106-I-0171, 99.9% purity, were provided by the Sponsor.
Cryopreserved hepatocytes of five single donors, lots EHI, REL, KSE […]
ZIJ and MRS, were purchased from In Vitro Technologies Inc (Baltimore, Maryland, USA).
The certificates of analysis are reported in Appendix 1.
Reagents and solvents were of analytical grade and obtained from Sigma-Aldrich (St. Louis, […]
7.5. In Vitro Incubations
On the day of the experiment a 10 mM stock solution of fexinidazole in DMSO was prepared and, within 3 hours, aliquots of this freshly prepared solution, after suitable dilution, were added to the incubation matrix, to reach fexinidazole final concentrations of 1 and 10 µM. The final percentage of DMSO was 0.01% in the incubation samples for the […]
The cryopreserved hepatocytes were thawed according to the supplier’s procedure and the number of viable cells was determined using the Trypan Blue exclusion method. Viabilities were 92% for lot EHI, 89% for lot REL, 82% for lot KSE, 86% for lot ZIJ and 86% for lot MRS in the intrinsic clearance study. In the metabolite profile study viabilities were 91% for lot EHI, 90% for lot REL, 85% for lot KSE, 84% for lot ZIJ and 87% for lot MRS.
Afterwards, the same amount of viable cells for each donor were pooled and used for the incubations of fexinidazole.
7.5.1. Intrinsic Clearance Study […]
µM with pooled human hepatocytes (1 million cells/mL) in a final incubation volume of 1 mL Leibovitz L-15 medium, at 37°C. Incubations were performed in duplicate in a 48-well plate under shaking. Sampling was performed using an automatic liquid handling system (Multiprobe II EX, Packard). At 0, 1, 5, 10, 15, 20, 30, 60 and 120 minutes, 50 µL aliquots of the incubates were taken, then 80 µL of ice-cold acetonitrile and 20 µL of 1 µM warfarin in acetonitrile (internal standard) were added, and samples centrifuged at 2000 rpm for 20 min. The supernatant was analyzed by LC-MS/MS. […]
The chemical stability of fexinidazole was checked by incubating the compound at 37°C in the medium alone at t = 0 and 120 minutes.
For the determination of phase I and phase II activities of hepatocytes, 7-ethoxycoumarin (7-ETC) 1 µM, and 7-hydroxycoumarin (7-HC) 30 µM were used as positive controls and incubated under the same conditions as fexinidazole. Aliquots of incubates were taken at 0, 1, 5, 10, 15, 20, 30, 60 and 120 minutes and processed as fexinidazole samples.
7.5.2. Metabolite Profile Study
For metabolite profiling, fexinidazole was incubated at a concentration of 10 µM with pooled human hepatocytes (1 million cells/mL) in a final incubation volume of 2 mL Leibovitz L-15 medium, at 37°C. Aliquots of the incubation samples were taken at t = 0, 30 and 120 minutes; the metabolism was stopped by the addition of an equal volume of cold acetonitrile and the samples centrifuged at 1100 rpm for 20 min. The supernatant was stored at -20°C until analysis. Control incubations were performed with the compound in the medium alone for 120 minutes.
7.6. Analysis of the Samples of Intrinsic Clearance Study
The analysis of the samples for intrinsic clearance determination was performed by an LC-MS/MS method, using the following conditions:
HPLC Equipment and Conditions
HPLC system 1100 binary pump (Agilent, Palo Alto, USA)
Autosampler 2777 (Waters)
Analytical column Guard Column SB-C8 4.6 x 12.5 mm, 5 µm (Zorbax)
Column temperature ambient
Mobile phase A 10 mM ammonium formate pH 4.0: acetonitrile (95:5, v:v)
Mobile phase B 10 mM ammonium formate pH 4.0: acetonitrile (5:95, v:v) […]
Gradient conditions Step Total time (min) flow (µL/min) %A % B […]

| SMILES | IC50 [1] | % of total drug related material ([2]; 120 min) [%] | % of total drug related material ([2]; 30 min) [%] | % of total drug related material ([2]; t=0) [%] |
| --- | --- | --- | --- | --- |
| Cn1c([N+](=O)[O-])cnc1COc1ccc(S(C)(=O)=O)cc1 [Fexinidazole sulfone] | 0.35 µg/mL to 0.4 µg/mL and 1.14 µM to 1.3 µM | 1 | – | – |
| Cn1c([N+](=O)[O-])cnc1COc1ccc([S+](C)[O-])cc1 (stereo not drawn) [Fexinidazole sulfoxide] | 0.41 µg/mL to 0.49 µg/mL and 1.33 µM to 1.65 µM | 98 | 98 | 23 |
| CSc1ccc(OCc2ncc([N+](=O)[O-])n2C)cc1 [Fexinidazole, 1-methyl-2-((p-(methylthio)phenoxy)methyl)-5-nitroimidazole] | 0.48 µg/mL to 0.82 µg/mL and 1.71 µM to 2.93 µM | – | 1 | 77 |
